{"source": "patent US20260041744A1", "about": "“Methods for Treating Pompe Disease” (Amicus Therapeutics, Inc., priority 2022, published 2026)", "key": {"[1]": {"system": "adult subjects with LOPD", "assay": "Study ATB200-07 (OLE): PROMIS-Fatigue", "type": "in vivo, human", "quoted_text": "Analysis populations presented in this summary are 1) the OLE-ES Population (all subjects who satisfied the eligibility requirements (based on the inclusion and exclusion criteria) and entered Study ATB200-07 and 2) the OLE-FAS Population (all subjects who entered the OLE Study ATB200-07 who had both a valid ATB200-07 baseline and at least 1 post-baseline assessment for at least 1 of the 6 main efficacy endpoints [6MWD, sitting % predicted FVC, MMT-lower extremities, PROMIS-Physical Function, PROMIS-Fatigue, and GSGC])."}, "[2]": {"system": "adult subjects with LOPD", "assay": "Study ATB200-07 (OLE): CK", "procedure": "The Phase III double-blind PROPEL study (NCT03729362; ATB200-03) described in Examples 9 and 10 above compared the investigational two-component therapy cipaglucosidase alfa/miglustat (cipa/mig) with alglucosidase alfa/placebo (alglu) in adults with late-onset Pompe disease (LOPD) over 52 weeks. The ongoing open-label extension (OLE) of PROPEL (NCT04138277; ATB200-07) evaluates long-term safety and efficacy of cipa/mig. Outcomes include 6 minute walk distance (6MWD), forced vital capacity (FVC), creatine kinase (CK) and hexose tetrasaccharide (Hex4) levels and safety. Data are reported as change from the PROPEL baseline to OLE week 52 (104 weeks after the PROPEL baseline)."}, "[3]": {"system": "adult subjects with late-onset Pompe disease (LOPD)", "assay": "Study ATB200-03 (PROPEL): PROMIS-Physical Function", "type": "in vivo, human", "conditions": "for CHG to Week 52 in PROMIS-Physical Function total score, LS Mean: MMRM, actual time point of assessments; for PROMIS-Physical Function Short Form 20a total score CHG, LS means (SE): Week 52, ANCOVA", "description": "The test for the primary endpoint was conducted first at the 1-sided 0.025 significance level, and if significant, the ordered key secondary endpoints were similarly tested at the same significance level. The statistical significance of the key secondary endpoints was interpreted following a hierarchical testing order, each at the 1-sided alpha level of 0.025. […] Primary analyses of efficacy were performed using the mixed-effect model for repeated measures (MMRM) for 6MWD in Intent-to-treat Observed Population (ITT) that includes all available, observed data without any missing data imputation (ITT-OBS) and analysis of covariance (ANCOVA) for all other endpoints in the Intent-to-Treat-Last Observation Carried Forward (ITT-LOCF) Population. A nonparametric randomization based ANCOVA was specified as the first sensitivity analysis for 6MWD and FVC. […] For the purposes of data presentation in this document, 2-sided p-values are reported hereafter, except as otherwise noted."}, "[4]": {"system": "adult subjects with late-onset Pompe disease (LOPD)", "assay": "Study ATB200-03: global test and responder analyses on 6MWD, FVC, MMT", "type": "in vivo, human", "conditions": "change from baseline to Week 52", "source_text": "To support the interpretation of clinical benefit, a composite subject-level response was defined based on the totality of the treatment outcome data. Subjects were classified by an ordinal response variable consisting of significant improvement, moderate improvement, or minor/no improvement based on treatment outcomes.\nThresholds for clinically relevant changes for 6MWD and FVC in Pompe specifically are not well established, however a large body of data exists from other neuromuscular and chronic respiratory diseases, especially interstitial pulmonary fibrosis (IPF). […] Accordingly, these thresholds were applied to analyses of Study ATB200-03 data.\nAdditional post hoc patient-level analyses were conducted using these thresholds for 6MWD (±6%) and FVC (±3%) separately and combined."}, "[5]": {"system": "adult subjects with late-onset Pompe disease (LOPD)", "assay": "Study ATB200-03 (PROPEL): urinary hexose tetrasaccharide (Hex4/Glc4)", "type": "in vivo, human"}, "[6]": {"system": "Gaa KO mice", "assay": "Muscle biomarkers LAMP1, LC3, dysferlin in Gaa KO mice (staining, western blot)", "type": "in vivo, mouse", "conditions": "mouse, in vivo", "description": "The therapeutic effects of ATB200 and miglustat were evaluated and compared against those of Alglucosidase alfa in Gaa KO mice. For the study, male Gaa KO (3-to 4-month old) and age-matched wild-type (WT) mice were used. Alglucosidase alfa was administered via bolus tail vein intravenous (IV) injection. In the co-administration regimen, miglustat was administered via oral gavage (PO) 30 minutes prior to the IV injection of ATB200. Treatment was given biweekly. Treated mice were sacrificed after 14 days from the last administration and various tissues were collected for further analysis. Table 11 summarizes the study design:\nTissue samples were also analyzed for biomarker changes following the methods discussed in: Khanna R, et al. (2012), “The pharmacological chaperone AT2220 increases recombinant human acid α-glucosidase uptake and glycogen reduction in a mouse model of Pompe disease,” Plos One 7(7): e40776; and Khanna, R et al. (2014), “The Pharmacological Chaperone AT2220 Increases the Specific Activity and Lysosomal Delivery of Mutant Acid a-Glucosidase, and Promotes Glycogen Reduction in a Transgenic Mouse Model of Pompe Disease,” PLOS ONE 9(7): e102092.\nSimilarly, intense LC3-positive aggregates in the muscle fibers of untreated Gaa KO mice signify the presence of autophagic zones and autophagy build-up. […] A similar observation was made when the expression of LC3 was assessed using western blot. […] In comparison, the effect of alglucosidase alfa on autophagy was modest.\nDysferlin, a protein involved in membrane repair and whose deficiency/mistrafficking is associated with a number of muscular dystrophies, was also assessed."}, "[7]": {"conditions": "Study ATB200-03 baseline, OLE-ES Population excluding Subject 4005-2511"}, "[8]": {"conditions": "change from ATB200-03 baseline at Week 104, alglucosidase alfa/placebo group switched to cipaglucosidase alfa/miglustat at Week 52, OLE-ES excluding Subject 4005-2511"}, "[9]": {"conditions": "Week 52-LOCF, ERT-experienced Population"}, "[10]": {"conditions": "Week 52-LOCF, ERT-naïve Subjects excluding Subject 4005-2511"}, "[11]": {"conditions": "Week 52-LOCF, ITT excluding Subject 4005-2511"}, "[12]": {"conditions": "Excluding Subject 4005-2511, 2-sided p 0.010"}, "[13]": {"conditions": "ITT Population, 2-sided p 0.022"}}}
{"substance": "alglucosidase alfa [reference compound]", "values": [{"measurement": "PROMIS-Fatigue, mean BSL", "setting": "[1]; [7]", "value": 21.2}, {"measurement": "PROMIS-Fatigue, mean 52-wk CFB", "setting": "[1]; change from ATB200-03 baseline at Week 52, decrease indicates improvement, OLE-ES excluding Subject 4005-2511", "value": "−1.7"}, {"measurement": "PROMIS-Fatigue, mean 104-wk CFB", "setting": "[1]; [8]", "value": "−0.1"}, {"measurement": "CK, mean BSL", "setting": "[2]; [7]", "value": 527.4}, {"measurement": "CK, mean 52-wk CFB", "setting": "[2]; change from ATB200-03 baseline at Week 52, OLE-ES excluding Subject 4005-2511", "value": 41.0}, {"measurement": "CK, mean 104-wk CFB", "setting": "[2]; [8]", "value": "−173.6"}, {"measurement": "PROMIS-Physical Function Short Form 20a total score Absolute Value, Median", "setting": "[3]; Baseline, ITT, ERT-naïve Subjects excluding Subject 4005-2511", "value": 67.00}, {"measurement": "PROMIS-Physical Function Short Form 20a total score Absolute Value, Mean", "setting": "[3]; Baseline, ITT, ERT-naïve Subjects excluding Subject 4005-2511, score 20 to 100, higher = less impact", "value": 72.71}, {"measurement": "mean (SD) change in PROMIS-Physical Function total score from baseline to Week 52", "setting": "[3]; ERT-experienced Population", "value": "1.0 (11.20)"}, {"measurement": "mean (SD) change in PROMIS-Physical Function total score from baseline to Week 52", "setting": "[3]; ERT-naïve excluding Subject 4005-2511", "value": "5.1 (7.82)"}, {"measurement": "Change in PROMIS-Physical Function total score baseline to Week 52, LS means (SE) from ANCOVA", "setting": "[3]; ITT-LOCF, ERT-naïve Subjects excluding Subject 4005-2511", "value": "6.96 (3.539)"}, {"measurement": "CHG to Week 52 in PROMIS-Physical Function total score, LS Mean", "setting": "[3]; ITT-OBS excluding Subject 4005-2511 (overall)", "value": "−0.3"}, {"measurement": "CHG to Week 52 in PROMIS-Physical Function total score, LS Mean", "setting": "[3]; ITT-OBS excluding Subject 4005-2511, ERT-naïve Subjects", "value": 5.8}, {"measurement": "CHG to Week 52 in PROMIS-Physical Function total score, LS Mean", "setting": "[3]; ITT-OBS, ERT-experienced Subjects", "value": "−1.6"}, {"measurement": "PROMIS-Physical Function Short Form 20a total score Absolute Value, Mean (SD)", "setting": "[3]; [9]", "value": "65.90 (15.790)"}, {"measurement": "PROMIS-Physical Function Short Form 20a total score Absolute Value, Median", "setting": "[3]; [9]", "value": 66.00}, {"measurement": "PROMIS-Physical Function Short Form 20a total score CHG, Mean (SD)", "setting": "[3]; [9]", "value": "−0.97 (11.196)"}, {"measurement": "PROMIS-Physical Function Short Form 20a total score CHG, Median", "setting": "[3]; [9]", "value": "−2.00"}, {"measurement": "PROMIS-Physical Function Short Form 20a total score Absolute Value, Mean", "setting": "[3]; [10]", "value": 77.86}, {"measurement": "PROMIS-Physical Function Short Form 20a total score Absolute Value, Median", "setting": "[3]; [10]", "value": 80.00}, {"measurement": "PROMIS-Physical Function Short Form 20a total score CHG (change from baseline), Mean", "setting": "[3]; [10]", "value": 5.14}, {"measurement": "PROMIS-Physical Function Short Form 20a total score CHG (change from baseline), Median", "setting": "[3]; [10]", "value": 5.00}, {"measurement": "PROMIS-Physical Function Short Form 20a total score Absolute Value, Mean (SD)", "setting": "[3]; [11]", "value": "68.16 (16.269)"}, {"measurement": "PROMIS-Physical Function Short Form 20a total score Absolute Value, Median", "setting": "[3]; [11]", "value": 69.00}, {"measurement": "PROMIS-Physical Function Short Form 20a total score CHG, Mean (SD)", "setting": "[3]; [11]", "value": "0.19 (10.819)"}, {"measurement": "PROMIS-Physical Function Short Form 20a total score CHG, Median", "setting": "[3]; [11]", "value": "−1.00"}, {"measurement": "PROMIS-Physical Function Short Form 20a total score CHG, LS means (SE)", "setting": "[3]; ITT-LOCF excluding Subject 4005-2511", "value": "0.11 (1.406)"}, {"measurement": "PROMIS-Physical Function Short Form 20a total score CHG, LS means (SE)", "setting": "[3]; ITT-LOCF, ERT-experienced Population", "value": "−1.25 (1.587)"}, {"measurement": "mean (SD) change in PROMIS-Physical Function total score from baseline to Week 52", "setting": "[3]; overall population", "value": "0.2 (10.82)"}, {"measurement": "Wilcoxon rank sum test on sum of ranks for 6MWD and % predicted FVC: Mean Score", "setting": "[4]; [12]", "value": 48.5}, {"measurement": "Wilcoxon rank sum test on sum of ranks for 6MWD and % predicted FVC: Sum of Scores", "setting": "[4]; [12]", "value": 1793.5}, {"measurement": "Wilcoxon rank sum test on sum of ranks for 6MWD and FVC: Mean Score", "setting": "[4]; [13]", "value": 50.4}, {"measurement": "Wilcoxon rank sum test on sum of ranks for 6MWD and FVC: Sum of Scores", "setting": "[4]; [13]", "value": 1915.5}, {"measurement": "mean urinary Glc4 concentration at Week 52", "setting": "[5]; ERT-experienced patients (baseline 4.6 and 7.2 mmol/mol)", "value": 9.1, "unit": "mmol/mol"}, {"measurement": "mean change in urine Hex-4 after 52 weeks", "setting": "[5]; combined ERT switch and ERT naïve population", "value": "+11.0%"}, {"measurement": "LC3 II level / autophagy, western blot", "setting": "[6]", "value": "modest"}]}
